Entries after “also recorded” stand apart in the source; their conditions may differ. No end group written: not given here.
Assays:
[1] = tested on: M2-polarized bone marrow-derived macrophages (BMDM); type: cell-based, murine (C57BL/6 mice); details: 48 h
Protocol: (§1) BMDM cells were isolated as described previously. Briefly, murine monocyte precursor cells were obtained by flushing out the bone marrow from the femur bones of 6–8-week-old healthy C57BL/6 mice. These precursor cells were then differentiated into M1 macrophages using 20 ng/mL of M-CSF and 20 ng/mL of IFN-γ and into M2 macrophages using 20 ng/mL of M-CSF and 20 ng/mL of IL-4 [29]. Human fetal lung fibroblast cell lines MRC5, IMR90, and IMR9 were purchased from the American Type Culture Collection (ATCC, Manassas, VA, USA) and were cultured according to ATCC protocols.
(§2) Cell viability dose-response curves were determined using the Live/Dead Viability/Cytotoxicity Kit (Thermo Fisher Scientific, Waltham, MA, USA, Cat# L3224) using the manufacturer’s protocol. Macrophages were seeded onto glass-bottom 96-well plates and polarized into M1 or M2 populations. Cells were treated with different concentrations of RP-832c for 48 h. After drug treatment, a 100 μL mixture of 2 μM calcein-AM and 4 μM ethidium homodimer was added and incubated for 1 h. The images were taken and analyzed as described in the immunofluorescence assay section below. A total of 200 cells were counted manually from three different random 20× regions across three technical replicates, and the percentage of alive cells was calculated using GraphPad Prism version 8.0. […]

[2] = tested on: M1-polarized bone marrow-derived macrophages (BMDM); assay: Live/Dead cell viability assay, M1 macrophages; type: cell-based, murine (C57BL/6 mice); details: 48 h, 0–100 μM
Protocol: as §1, §2

[3] = tested on: MRC5 human fetal lung fibroblast cell line; assay: Cytotoxicity in lung fibroblasts MRC5; type: cell-based
Protocol: (§3) The RP-832c (RWKFGGFKWR) peptide was synthesized by PolyPeptide Laboratories, San Diego, CA, USA. BMDM cells were isolated and polarized as described previously. The cell viability of RP-832c-treated macrophages was determined using the live/dead viability assay as previously described. Human fetal lung fibroblast cell lines MRC5, IMR90, and IMR9 were purchased from the American Type Culture Collection (ATCC, Manassas, VA, USA) and were cultured according to ATCC protocols.
as §1, with “Human fetal lung fibroblast cell lines MRC5, IMR90, and IMR9 were purchased from the American Type Culture Collection (ATCC, Manassas, VA, USA) and were cultured according to ATCC protocols.” left out
(§4) Cell viability dose-response curves were determined using the Live/Dead Viability/Cytotoxicity Kit (Thermo Fisher Scientific, Waltham, MA, USA, Cat# L3224) using the manufacturer’s protocol. […] The images were taken and analyzed as described in the immunofluorescence assay section below. A total of 200 cells were counted manually from three different random 20× regions across three technical replicates, and the percentage of alive cells was calculated using GraphPad Prism version 8.0. […]

[4] = tested on: IMR9 human fetal lung fibroblast cell line; assay: Cytotoxicity in lung fibroblasts IMR9 / IMR91; type: cell-based; details: 1μM - 100μM; three independent experiments in triplicate
Protocol: as §3
as §1, with “Human fetal lung fibroblast cell lines MRC5, IMR90, and IMR9 were purchased from the American Type Culture Collection (ATCC, Manassas, VA, USA) and were cultured according to ATCC protocols.” left out
as §4

[5] = matrix and method not stated; no reference given; cited from earlier work
Excerpt: It is evident from various studies that macrophages are indispensable in tissue repair and subsequent fibrotic changes. […] M1 macrophages initiate host defense responses against pathogens by generating reactive nitric oxide (NO) via inducible nitric oxide synthase (iNOS), and by releasing proinflammatory cytokines and chemokines such as IL-1β, IL-12, IL-23, CCL2, and TNF-α. Meanwhile, M2 macrophages contribute to the pathogenesis of fibrosis ...

[6] = Toxicity study: body and organ weights, blood count, blood chemistry
CD206 in lung tissue = assay: IHC staining of CD206 in lungs of BLM-treated mice; type: in vivo, mouse; details: n=3 mice; vs naïve
Protocol: At the end of the study, the mice were sacrificed using CO2 followed by cervical dislocation (according to IACUC guidelines), and the lungs were collected and fixed in 10% formalin. After 48 h of fixation, the lungs were processed into tissue sections. The tissue sections were stained with both Hematoxylin/Eosin (H&E) (Sigma Aldrich, Burlington, MA, USA) and Masson Trichrome (Abcam, Waltham, MA, USA). Immunostaining was performed with the anti-CD206 (AF2535, 5 ug/mL, R&D Biosciences), TGF-β1 (MAB1835, 10 ug/mL, R&D Biosciences), and α-SMA (MAB1420, 10 ug/mL, R&D Biosciences, Minneapolis, MN, USA) antibodies as previously described. All slides were scanned using a Leica Aperio SC2 scanner and blindly evaluated by two independent pathologists. A total of 10 representative fields of 20× IHC images per tissue section were individually analyzed for the total number of cells/area using a confocal microscope (Olympus, New York, NY, USA). All quantitative data were normalized to appropriate control images.
We first sought to perform in silico validation of CD206 expression at various time points in both bleomycin-treated rat (GSE48455) and mouse models (GSE40151). […] Thus, the BLM model appears to be an appropriate model to determine the role of CD206 in lung fibrosis. […]
by different concentrations (0μM - 100μM) of RP-832c. […]

[7] = molecular target: T1, CD206 (macrophage mannose receptor) (UniProt P22897); assay: SPR
T1 chain: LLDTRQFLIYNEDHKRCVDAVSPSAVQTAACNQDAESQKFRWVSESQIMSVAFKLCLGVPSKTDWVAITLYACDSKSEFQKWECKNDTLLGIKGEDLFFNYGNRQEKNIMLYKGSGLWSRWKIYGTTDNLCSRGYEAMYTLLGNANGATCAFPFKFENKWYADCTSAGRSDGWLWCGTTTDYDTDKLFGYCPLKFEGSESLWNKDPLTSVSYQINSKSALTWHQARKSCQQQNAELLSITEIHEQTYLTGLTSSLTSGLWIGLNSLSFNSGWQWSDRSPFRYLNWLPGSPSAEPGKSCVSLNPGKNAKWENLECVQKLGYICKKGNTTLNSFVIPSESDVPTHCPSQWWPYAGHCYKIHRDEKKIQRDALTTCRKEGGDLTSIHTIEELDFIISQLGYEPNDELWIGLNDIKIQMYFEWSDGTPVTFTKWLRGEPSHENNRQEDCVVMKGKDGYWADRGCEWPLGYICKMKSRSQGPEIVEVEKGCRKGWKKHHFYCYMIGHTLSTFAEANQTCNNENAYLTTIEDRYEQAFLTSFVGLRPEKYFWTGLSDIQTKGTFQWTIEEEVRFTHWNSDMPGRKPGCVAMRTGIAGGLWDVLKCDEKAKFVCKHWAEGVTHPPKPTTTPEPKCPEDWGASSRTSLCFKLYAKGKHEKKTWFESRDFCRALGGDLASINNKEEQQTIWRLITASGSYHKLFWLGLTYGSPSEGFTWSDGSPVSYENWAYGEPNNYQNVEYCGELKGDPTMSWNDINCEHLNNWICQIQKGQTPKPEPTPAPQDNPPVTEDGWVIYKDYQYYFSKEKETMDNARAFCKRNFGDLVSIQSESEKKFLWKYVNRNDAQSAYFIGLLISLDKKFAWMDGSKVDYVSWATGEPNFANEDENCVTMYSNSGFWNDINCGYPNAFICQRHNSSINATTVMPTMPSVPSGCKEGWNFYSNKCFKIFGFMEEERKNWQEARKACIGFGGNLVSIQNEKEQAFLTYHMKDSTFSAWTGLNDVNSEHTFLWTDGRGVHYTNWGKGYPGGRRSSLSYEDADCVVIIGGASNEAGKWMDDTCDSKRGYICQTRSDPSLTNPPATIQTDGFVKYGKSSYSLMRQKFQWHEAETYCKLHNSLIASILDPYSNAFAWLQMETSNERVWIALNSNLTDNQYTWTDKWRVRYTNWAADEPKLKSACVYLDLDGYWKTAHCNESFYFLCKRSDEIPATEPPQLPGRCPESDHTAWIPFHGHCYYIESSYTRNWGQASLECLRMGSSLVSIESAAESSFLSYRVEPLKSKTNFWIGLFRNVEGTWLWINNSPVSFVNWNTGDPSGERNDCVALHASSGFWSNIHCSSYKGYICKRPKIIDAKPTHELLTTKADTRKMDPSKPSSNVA

**Q.** Which results are given for RWKFGGFKWR [RP-832c]?
**A.** IC50 [1]: ~6 µM; cytotoxicity in M1 macrophages [2]: only minimal cytotoxicity; cytotoxicity against MRC5 fibroblasts ([3]; 1μM - 100μM, three independent experiments in triplicate): did not show cytotoxicity; also recorded: lacking any cytotoxicity; proliferation of fibroblast cell lines ([3]; multiple fibroblast cell lines cultured in vitro): did not observe any significant effect on the proliferation of multiple fibroblast cell lines; also recorded: did not observe direct inhibitory effects on the fibroblast cell lines; cytotoxicity against IMR9 (IMR91) fibroblasts [4]: did not show cytotoxicity; also recorded: lacking any cytotoxicity; half-life compared to RP-182 [5]: increased half-life compared to RP-182; stability compared to RP-182 [5]: enhanced stability; AST, Mean Difference ([6]; 50 mg/kg vs saline, p 0.1237): −48.8; Phosphorus, Mean Difference ([6]; 50 mg/kg vs saline, p 0.2623): -1.1 mg/dL; BUN, Mean Difference ([6]; 50 mg/kg vs saline, p 0.3087): 1.6 mg/dL; Albumin, Mean Difference ([6]; 50 mg/kg vs saline, p 0.3982): 0.2 g/dL; Globulin, Mean Difference ([6]; 50 mg/kg vs saline, p 0.4413): 0.1 g/dL; Total Protein, Mean Difference ([6]; 50 mg/kg vs saline, p 0.5797): 0.3 g/dL; Creatinine, Mean Difference ([6]; 50 mg/kg vs saline, p not given): 0.0 mg/dL; body weight ([6]; 50mg/kg, CD1 mice, vs vehicle): did not have any significant effect on body weight; Creatinine ([6]; 50 mg/kg, n = 10, saline n = 5: 0.2 ± 0): 0.2 ± 0 mg/dL; Globulin ([6]; 50 mg/kg, n = 10, saline n = 5: 2.6 ± 0.5): 2.7 ± 0.2 g/dL; Albumin ([6]; 50 mg/kg, n = 10, saline n = 5: 2.9 ± 0.3): 3.1 ± 0.3 g/dL; Total Protein ([6]; 50 mg/kg, n = 10, saline n = 5: 5.6 ± 0.8): 5.9 ± 0.5 g/dL; Phosphorus ([6]; 50 mg/kg, n = 10, saline n = 5: 8.8 ± 2.4): 7.7 ± 0.5 mg/dL; BUN ([6]; 50 mg/kg, n = 10, saline n = 5: 22.4 ± 3.4): 24.0 ± 4.3 mg/dL; ALT ([6]; 50 mg/kg, n = 10, saline n = 5: 35.8 ± 18.9): 27.2 ± 10 U/L; AST ([6]; 50 mg/kg, n = 10, saline n = 5: 140.0 ± 75.5): 91.2 ± 21.7 U/L; body weight, organ weights, complete blood count and blood chemistry ([6]; 50 mg/kg, vs vehicle): no apparent toxicities observed; also recorded: No significant differences were observed; complete blood cell count ([6]; 50 mg/kg, vs vehicle): does not significantly affect the complete blood cell count; organ weights ([6]; 50 mg/kg, vs vehicle): lacks any significant

**Q.** For bleomycin, which “CD206 expression in lungs of BLM-treated mice (IHC)” value (CD206 in lung tissue) is on record?
**A.** upregulated

**Q.** Which Kd [7] does the source give for RWKFGGFKWR [RP-832c] here?
**A.** ~3.5 µM

— paper PMC10177262, “A Novel CD206 Targeting Peptide Inhibits Bleomycin-Induced Pulmonary Fibrosis in Mice” (Cells, 2023)
